Reference: patent publication US20030113901A1, “Cell production” (priority 2000, published 2003)

Assays:
[1] = tested on: in vitro-derived neurectoderm (EBM7); assay: Immunohistochemistry, TH: dopaminergic neuron formation from in vitro-derived neurectoderm (EBM7); format: cell-based; details: EBM7s, 10 ng/ml NGF days 7-10, 200 μM dopamine days 10-14 where present, day 14
Protocol: FIG. 2: The culture of in vitro-derived neurectoderm in the presence of NGF and dopamine increases dopaminergic neuron formation. EBM^7s were seeded for 3 days in 50% DMEM/F12, 10 ng/ml FGF2, 0.1% ITSS, 1% FCS, and 10 ng/ml NGF, and for an additional 4 days in DMEM/F12, 0.1% ITSS, 200 μM ascorbic acid, with or without 200 μM dopamine. The resulting EBMs were analysed by immunohistochemistry using an anti-TH antibody. Positive staining for TH (dark regions) indicated dopaminergic neurons. A, EBM^7s cultured in the absence of NGF and dopamine; B, EBM^7s cultured in the presence of NGF; C, EBM^7s cultured in the presence of NGF and dopamine.
(§1) EBs were grown in the presence of the conditioned medium MEDII for 7 days (EBM^7) as previously described in International Patent Application PCT/AU99/00265 to applicants, the entire disclosure of which is incorporated herein by reference.
(§2) ES cells were seeded at a density of 1×10^5 cells/cm^2 In suspension culture in bacterial petri dishes in DMEM containing 50% MEDII. DMEM is defined as Dulbecco's Modified Eagles Medium (Gibco BRL), pH 7.4, containing high glucose and supplemented with 10% foetal calf serum (FCS; Commonwealth Serum Laboratories), 40 μg/ml gentamycin, 1 mM L-glutamine, 0.1 mM β-mercaptoethanol (β-ME). […]
(§3) Antibody staining for NF200 and tyrosine hydroxylase (TH) was detected by alkaline phoaphatase activity. […]

[2] = tested on: in vitro-derived neurectoderm (EBM7); assay: Immunohistochemistry, NF200: neuron formation from in vitro-derived neurectoderm (EBM7); format: cell-based; details: EBM7s grown in the presence of 10 ng/ml NGF vs absence; anti-NF200 antibody, day 14
Protocol: FIG. 1: The culture of in vitro-derived neurectoderm in the presence of NGF increases neuron formation. EBM^7s were seeded for 3 days in 50% DMEM/F12, 10 ng/ml FGF2, 0.1% ITSS, 1% FCS, in the presence or absence of 10 ng/ml NGF, and for an additional 4 days in 50% DMEM/F12, 0.1% ITSS. The resulting EBMs were analysed by immunohistochemistry using an anti-NF200 antibody. Positive staining for NF200 (dark regions) indicated neurons. A, EBM^7s cultured in the absence of NGF; B, EBM^7s cultured in the presence of NGF.
as §1
as §2, with “(β-ME). The resulting cell aggregates (EBMs) were split 1:2 after 2 days and seeded into fresh DMEM containing 50% MEDII.” for “(β-ME).”
as §3

Compound	TH positive cells (anti-TH antibody staining) [1]	proportion of cells staining positive for NF200 [2]
NCCc1ccc(O)c(O)c1 [dopamine, reference compound]	significant increase	
NGF: growth factor from the neural growth factor (NGF) family, used at 10 ng/ml	only a small proportion	significantly increased
